A short description of one data set: Solubility in water. It is filed as physicochemical.
Data set [1] concerns radish, peas, and lettuce plants. Conditions: Carter et al., cited from earlier work.
The format of data set [2] is physicochemical.
Data set [3] is classed as physicochemical. The source holds these as a separate data set.
For data set [4] the following is noted: room temperature, 90% H2O/D2O.
The test system of the next data set is people. Conditions: exposure in the air; cited from earlier work.
Data set [5] is classed as physicochemical. The source holds these as a separate data set.
Another data set relates to corn. The data set can be described thus: Growth of corn in pots exposed to dibutyldithiophosphate (Example 20). It is filed as in vivo. The note with it: 4 weeks. On the procedure:
Corn was planted in 6″ TEKU pots. The pots were packed finger tight with potting mix #4 from Beautiful Land Products. The corn seeds were planted approximately 1.5 inches deep. Fifty seeds of corn were planted for every loading of dibutyldithiophosphate ammonium salt. After the seeds were added to the soil the dibutyldithiophosphate ammonium salt was added as a fully dissolved aqueous solution. Tap water (500 mL) was added to a measured amount of the salt to yield desired amount in 10 mL After mixing well for 10 minutes, the aqueous solution was added to each plant via syringe (10 mL) immediately around and on the seed. After adding the salt, the plants were moved outside in full sunlight until harvest. The corn plants were watered daily.
The corn was harvested after 4 weeks. Plant height was taken by straightening the corn plant out by the leaves and measuring from the base of the shoot to the longest point on the leaf. After removing the roots, the weight of the shoot and leaves was measured using a balance.
Statistical analysis was performed using IBM SPSS Statistics 25. Non-parametric Kruskal-Wallis test was performed to determine significance. Data represented are mean±standard error with ** indicating α<0.05 and * indicating α<0.1.

For the next data set, the system named is soybeans. The data set can be described thus: Field trial: harvest yield of soybeans (Example 27). It is filed as in vivo. The note with it: 2 kg per acre, side dressing, versus not exposed. The text has this:
All essential plant nurtients (N, P, K, and S) were applied in non-limiting amounts. Prior to planting soybeans, the fields were fertilized with 60 lb acre of P2O5, 80 lb per acre of K20, and 20 lb per acre of sulfur. The soybean seeds were a 2.8-3.2 relative maturity planted at 120,000 to 140,000 seeds per acre. All field management were designed to effectively control weed and insect pests to optimize soybean growth and yield. The soybeans were planted and either 0, 0.5, 1.0, or 2.0 kg per acre of dibutyldithiophosphate was applied as a side dressing to the soybean plants. The dibutyldithiophosphate was dissolved in water and applied. The harvest weight was determined for each plot and corrected for slight differences in moisture content.

[6] abbreviates: water buffered at pH 6.7, FIG. 4.

Counter-ions that a name gives are not always drawn. Like-named read-outs stand apart in the source and are kept apart here.

Turning to `S=P(S)(Sc1ccccc1)Sc1ccccc1` [Example 13], the “Solubility in water of the potassium and triethylamine salts” value in the data set “Solubility in water” is reported as “insoluble in water”.
Turning to `C1COCCN1.COc1ccc(P(=S)(S)N2CCOCC2)cc1` (stereo not drawn) [GYY-4137], the “Growth of radish, peas, and lettuce plants” value in data set [1] is on record as “increased the growth”. Moreover, the “Harvest yield of radishes” value in data set [1] (milligram loadings) is recorded as “doubled”.
For `CCCCOP(=S)(S)OCCCC` [Example 1, Dibutyldithiophosphate Ammonium Salt], the “Rate of first-step of hydrolysis (85° C.)” value in [2] (85° C., 90% H2O/D2O) worked out at 0.00096 h⁻¹. For the same molecule, the “Time to complete hydrolysis” value in data set [2] (85° C., 90% H2O/D2O, to phosphoric acid only) turned out to be 180 days. The “Hydrolysis slower than the compound of Example 2” value in [2] (85° C., versus Example 2) was 3.5 ×. Besides, the “Hydrolysis slower than the dithiophosphate of Example 3” value in data set [2] (85° C., versus Example 3) was found to be 7.4 ×. In addition, the “Hydrolysis slower than the dithiophosphate of Example 4” value in [2] (85° C., versus Example 4) turned out to be 1.4 ×. Moreover, the “Release of H2S (rank among the dithiophosphates)” value in data set [3] (setting [6]) is listed as “lowest”. In addition, in data set [4] (30 days, 31P NMR), the “Percent Degradation” value was less than 3%.
In the case of `CC(C)[C@@H]1CC[C@@H](C)C[C@H]1OP(=S)([S-])O[C@@H]1C[C@H](C)CC[C@H]1C(C)C.[K+]` [Example 5], the “Release of H2S at 5 mM” value in [3] (pH 6.7) was “released H2S”. Further, in “Solubility in water” (concentration of 5 mM), the “Solubility in water at 5 mM” value is on record as “mostly insoluble in water”. Further, the “Solubility in water of the potassium and triethylamine salts” value in “Solubility in water” is recorded as “insoluble in water”.
`S=P1(S)OCCS1` (stereo not drawn) [Example 14]: the “Release of H2S (rank among the dithiophosphates)” value in [3] (pH 6.7) is “highest”.
As to `S` [Example H2S, hydrogen sulfide], the “Level immediately dangerous to life and health” value in the data set with people is 100 ppm.
For `CC(C)(C)OP(=S)([S-])OC(C)(C)C.[Na+]` [Example 8, Di(Tert-Butanol)Dithiophosphate Sodium Salt], the “Rate of hydrolysis slower at room temperature than at 85° C.” value in data set [2] (room temperature versus 85° C.) is reported as 2,600 ×. For the same molecule, the “Rate of first-step of hydrolysis” value in data set [2] (room temperature, 90% H2O/D2O) came to 0.0051 h⁻¹. Also, in [5] (25° C. versus 85° C.), the “ΔΔG^‡” value was 0.526 kcal/mol. In data set [5] (rate constants measured from 25 to 85° C.), the “ΔH^‡” value was determined as 27.84 kcal/mol. Moreover, the “Release of H2S (rank among the dithiophosphates)” value in data set [3] (setting [6]) is given as “highest”. In data set [4] (day 12), the “Percent degraded at day 12” value was 62%. In [4] (day 20), the “Percent degraded at day 20” value is recorded as 88%.
For the molecule `CC1(C)[C@@H]2CC[C@]1(C)[C@H](OP(=S)(S)O[C@@H]1C[C@H]3CC[C@@]1(C)C3(C)C)C2` [Example 7], the “Solubility in water of the potassium and triethylamine salts” value in “Solubility in water” is “insoluble in water”.
`CCCCOP(=S)(S)OCCCC` [dibutyldithiophosphate]: the “Increase in weight of the corn plants” value in the data set with corn (1 mg added to the soil adjacent to the seed, versus plants grown without) came to 39%. Further, the “Weight of the corn plants (significance)” value in the data set on corn (1, 10, 50, and 75 mg loadings) is “statistically significant improvements”. The “Heights of the corn plants” value in the data set with corn (all loadings) is “Little statistically significant difference”. In addition, the “Increase in harvest yield of soybeans” value with soybeans is given as 4.4%.

These data come from patent publication US12016336B2 (priority 2020, dated 2024).
